Assay results as given in patent EP1308501A1, “Fermented beverages comprising yeast transformed by the ATF2 gene” (Pernod-Ricard, priority 2001, dated 2003).
Like-named read-outs stand apart in the source and are kept apart here.

Experiments:
[1] = system: alcool acétyle transférase; settings: partially purified enzyme, cited from earlier work
[2] = target: T1, Atf2p (Saccharomyces cerevisiae, UniProt P53296); settings: cited from earlier work
T1 sequence (P53296 1-535): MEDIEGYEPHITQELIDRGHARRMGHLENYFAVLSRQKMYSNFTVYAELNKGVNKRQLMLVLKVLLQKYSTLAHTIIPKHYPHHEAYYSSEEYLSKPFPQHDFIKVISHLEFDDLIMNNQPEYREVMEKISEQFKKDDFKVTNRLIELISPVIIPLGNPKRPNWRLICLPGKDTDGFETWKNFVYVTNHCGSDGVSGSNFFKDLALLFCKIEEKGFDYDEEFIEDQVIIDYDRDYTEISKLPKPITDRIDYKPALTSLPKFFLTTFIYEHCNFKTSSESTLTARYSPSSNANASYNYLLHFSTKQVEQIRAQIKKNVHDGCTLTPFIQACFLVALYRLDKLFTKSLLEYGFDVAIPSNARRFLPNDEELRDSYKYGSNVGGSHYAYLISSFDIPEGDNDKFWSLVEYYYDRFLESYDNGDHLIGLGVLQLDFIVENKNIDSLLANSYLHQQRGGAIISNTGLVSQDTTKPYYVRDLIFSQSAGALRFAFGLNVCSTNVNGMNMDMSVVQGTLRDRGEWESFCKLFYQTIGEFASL

[3] = system: YRC1001/pRC124; experiment: Bioconversion of alcohols added to malt medium by a strain overexpressing ATF2; format: cell-based, Saccharomyces cerevisiae
Description: Transformation dans la souche […], sous contrôle du promoteur proTEF1, le gène ATF2 (pRC124). Les précultures sont réalisées dans du milieu liquide SC20 (Sherman, 1991) dépourvu d'uracile et selon la même procédure que dans l'exemple 3. Les cultures sont ensemencées comme décrit précédemment dans du milieu malt, cette fois non glucosé. Ce dernier est supplémenté en leucine, lysine et histidine. A ce milieu malt, on ajoute juste avant ensemencement des alcools à raison de 100 μg/ml. Après fermentation pendant 98 heures, on analyse -comme décrit précédemment- les alcools et leurs produits dérivés (esters […] correspondant à l'alcool et son ester éthylé). La capacité de bioconversion est ensuite exprimée par le rapport « ester acétylé de l'alcool ajouté »/« somme des alcools et produits dérivés ». Cette valeur donne une indication […] au milieu extérieur par la souche de levure transformée. Les résultats sont […] Tableau 4.

[4] = system: production d'esters; settings: six mois après la mise en bouteille; cited from earlier work
[5] = alcohol added at 100 µg/ml, malt non glucosé, 98 heures, ratio ester acétylé de l'alcool ajouté / somme des alcools et produits dérivés

In the case of CC(=O)SCCNC(=O)CCNC(=O)[C@H](O)C(C)(C)COP(=O)(O)OP(=O)(O)OC[C@H]1O[C@@H](n2cnc3c(N)ncnc32)[C@H](O)[C@@H]1OP(=O)(O)O [acétyle-CoA], the Km ([1]; co-factor) is given as 25 to 40 µM and the Km [2] is given as 1 µM.
For OCc1ccccc1 [benzylalcool], the “Bioconversion par YRC1001/pRC124” value [3, 5] was 0,163.
In the case of CC(=O)OCCC(C)C [acétate d'isoamyle], the “réduction des esters acétylés” value [4] is given as ~2 fois.
For CC(=O)OCCc1ccccc1 [acétatede 2-phényléthyle], the “réduction des esters acétylés” value [4] is listed as ~2 fois.
In the case of CC(C)CCO [isoamylalcool], the “Bioconversion par YRC1001/pRC124” value [3, 5] is listed as 0,045 and the Km ([1]; acceptor) is listed as 25000 µM.
With CCCCO [n-butanol] the “Bioconversion par YRC1001/pRC124” value [3] was 0,021.
For CC(=O)[C@H]1CC[C@H]2[C@@H]3CC=C4C[C@@H](O)CC[C@]4(C)[C@H]3CC[C@]12C [pregnénolone], the Km [2] is given as 0.5 µM.
